The text below walks through data of patent US20220184091A1, “Methods of Treating Cancer with Chk1 Inhibitors” (Sierra Oncology, Inc., priority 2019, published 2022).

In series [1] the test system is STING pathway. Briefly: Immunoblot of STING pathway proteins in resected RPP tumors. The class given is in vivo, mouse. As to conditions: RPP tumors resected at Day 21. The protocol:
(§1) Western blot analysis was performed using SDS-PAGE followed by transfer to nitrocellulose membrane using the BioRad Gel system. Membranes were incubated in the following primary antibodies (1:1000) overnight: PD-L1 (CST), total and phospho- (S366) STING (CST), total and phospho- (S396) IRF3 (CST), phospho-YH2AX (CST) and Actin (Sigma). Secondary anti-rabbit, HRP-linked antibodies were purchased from Cell Signaling Biosciences and detected using the Chemidoc imaging system mage-captured with Image Studio Version 3.1 software.

In another series the test system is CXCL10 and CCL5. Briefly: qPCR of CXCL10 and CCL5 in MBT-2 tumors. The class given is in vivo, mouse. The text has this: FIGS. 23A-D show the qPCR measurement of CXCL10 and CCL5 mRNA expression in MBT-2 (FIG. 23A and FIG. 23B) and MC38 (FIG. 23C and FIG. 23D) tumors resected after 7 or 14 days of treatment with SRA737 5/7 days. Data presented as mean±SD and p values by t-test * p<0.05, **p<0.01, ***p<0.001.
Real-time PCR was done using SYBR Select Master Mix (Life Technologies, cat #4472908) according to the manufacturer's protocol. Primers were purchased from Sigma Aldrich, Inc. Triplicate PCR reactions were run on ABI (7500 Fast Real Time PCR System). The comparative Ct method using the average 2ΔΔCT value for each set of triplicates was used, and the average of the biological replicates was calculated. Negative controls were included for every primer set, and GAPDH was used as the […].
The flank of immunocompetent mice was then treated with SRA737 monotherapy for 5-days-on/2-days-off for either one or two cycles and the expression of CCL5 and CXCL10 in extracted tumors were analyzed. […] The previously used dosing regimen of 5-days-on/2-days-off was modified to a schedule of 7-days-on/7-days-off for SRA737 treatment with or without co-treatment with anti-PD1 (Days 3, 7 and 11) based on the results of induction of chemokines secretion after 7 days.

For series [2], the system named is NSCLC cancer lines (A549, Calu1, Calu6, H1299, H1573, H1944, H1993). Briefly: Cell viability, NSCLC cancer lines. The class given is cell-based. As to conditions: read-out: IC50 range.
The next series has as its system PD-L1. The series can be described thus: Western blot of total PD-L1 in SCLC cell lines. The class given is cell-based. As to conditions: all SCLC cell lines tested; 1 μM for 72 hours. As for the experimental part:
as §1

Another series relates to H69. The series can be described thus: Micronuclei assay, H69. As to conditions: 1 μM, 24 hours or 48 hours. The class given is cell-based, human. As for the experimental part:
H69 cells were cultured as discussed earlier and treated with or without SRA737 (1 μM). Cytochalasin B was added at 20th hour to each culture to give a final concentration of 3 μg/ml and the culture was incubated at 37° C. for up to 24 hrs. After 24 hrs incubation, the cells were centrifuged at 1000 rpm for 5 min. The supernatant was removed and the pellet was treated with weak hypotonic solution (0.075 M KCl/0.9% Saline, 1:9) and incubated at 37° C. for 5 min. After this, the cells were centrifuged and the pellets were fixed in fresh fixative (methanol:acetic acid, 3:1). Cells were dropped onto glass slides were prepared and stained with ProLong® Gold Antifade Mountant with DAPI. In the case of EMT-6 cells, micronuclei formation assays were performed at Phenovista Biosciences, San Diego. The cells were treated with either 1 μM or 5 μM SRA737 for 24h followed by mixing with 4% PFA for 20 minutes at RT directly in the culture wells, washing with PBS and staining with Hoechst (1:1000). The plates were imaged at 40× using the Thermo Fisher Scientific CellInsight CX7 imaging system and the micronuclei algorithm was adjusted to score all nuclei that are <55% of the size of the main nucleus. A total of 25 fields per well were imaged and the data was averaged across 8 replicates.
SRA737 was also evaluated for induced cytogenetic stress using a micronuclei (MN) assay.

The next series has as its target T1, Chk1 (Homo sapiens, UniProt O14757).
T1 construct: endogenous in cells
Briefly: In vitro Chk1 autophosphorylation and potentiation of genotoxic agents. The class given is cell-based.

The subject of a further series is MC38. The series can be described thus: MC38 colon flank tumor growth in immunocompetent mice. The class given is in vivo, mouse. As for the experimental part:
(§2) Tumors were evaluated twice weekly for the duration of the study. Tumor volumes were measured on all mice three times per week and calculated (width^2×length×0.4) using manual calipers. Once the average tumor size was in the range of 120-150 mm^3, mice were randomized into dosing groups using stratified sampling by assigning three animals per group for short-term reverse-phase protein array analysis and long-term treatment. Dosing schedules and duration varied depending on the study. Mice were weighed three times per week for the duration of the study, and a decrease in body weight >15% was considered indicative of a toxic dose. The Student t-test was used to determine statistical significance between compound- and vehicle-treated groups.
(§3) Tumors cells were implanted into the flank of immunocompetent mice. Once the volumes of the tumor reached 150-200 mm^3, the mice were randomized and treated with either monotherapy of SRA737 at 100 mg/kg for 5-days-on/2-days-off p.o., anti-PD1 BIW at 10 mg/kg i.p. or the combination thereof.

The subject of another series is RPP tumor. The series can be described thus: Flank RPP (SCLC) tumor growth in B6129F1 immunocompetent mice. As to conditions: anti-PD-L1 300 μg 1-day-on/6-days-off. The class given is in vivo, mouse. As for the experimental part: as §2
[…] 15A.

The next series concerns Pan02. Briefly: Pan02 pancreatic flank tumor growth in immunocompetent mice. The class given is in vivo, mouse. As to conditions: SRA737 100 mg/kg 5-days-on/2-days-off p.o., anti-PD1 BIW 10 mg/kg i.p. The protocol: as §2, §3
In series [3] the test system is STING pathway. The series can be described thus: Western blot of STING pathway markers in SCLC cell lines. The class given is cell-based. As to conditions: H1694 and H847 cell lines; 1 μM; 24 and 72 hours. As for the experimental part: as §1

T1 sequence (O14757 whole entry, species assumed): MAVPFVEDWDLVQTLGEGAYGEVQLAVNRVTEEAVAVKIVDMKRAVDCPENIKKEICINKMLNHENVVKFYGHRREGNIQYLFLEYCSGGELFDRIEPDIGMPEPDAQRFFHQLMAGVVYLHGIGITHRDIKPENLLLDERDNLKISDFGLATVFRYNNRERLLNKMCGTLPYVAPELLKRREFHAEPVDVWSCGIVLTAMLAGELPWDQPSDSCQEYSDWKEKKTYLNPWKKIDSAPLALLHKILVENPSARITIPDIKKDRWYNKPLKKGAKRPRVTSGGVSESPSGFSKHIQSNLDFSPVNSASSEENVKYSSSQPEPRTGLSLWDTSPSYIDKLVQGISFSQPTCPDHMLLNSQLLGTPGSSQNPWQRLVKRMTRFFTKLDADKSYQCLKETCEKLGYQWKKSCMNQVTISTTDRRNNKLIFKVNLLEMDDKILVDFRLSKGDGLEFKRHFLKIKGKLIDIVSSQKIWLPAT

Consider `N#Cc1cnc(Nc2cc(NCC3CNCCO3)c(C(F)(F)F)cn2)cn1` (centres unmarked) [SRA737, 5-[[4-[[morpholin-2-yl]methylamino]-5-(trifluoromethyl)-2-pyridyl]amino]pyrazine-2-carbonitrile], for which the “STING pathway incl. pSTING_S366, pTBK1_S172, cGAS, pIRF3_S396 in tumors” value in the series on STING pathway [1] is given as “significant activation of the STING pathway”. Besides, the CCL5 levels entry with CXCL10 and CCL5 (after 7 days, p<0.01) is “significantly induced”; in the series on CXCL10 and CCL5 (after 14 days), “no significant difference”. Besides, in the series on CXCL10 and CCL5 (after both 7 days and 14 days, p<0.05), the CXCL10 expression entry was “significant induction”. For the same molecule, the concentration for half-maximal inhibition (IC50) in [2] is not below 800 nM. Besides, in the series with PD-L1, the “total PD-L1 levels” value was “significantly increased”. In addition, in the series on H69, the micronuclei formation entry is listed as “led to micronuclei formation”. The “potentiation of the cytotoxicity of genotoxic chemotherapeutic agents and targeted agents” value on Chk1 is “dose-dependent potentiation”. In addition, the tumour growth inhibition (TGI) with MC38 (SRA737 100 mg/kg 5-days-on/2-days-off p.o., anti-PD1 BIW 10 mg/kg i.p.) amounted to 48%; in the series with Pan02, 59%. Moreover, the tumor growth inhibition in the series with MC38 (altered regimen SRA737 7-days-on/7-days-off, anti-PD-1 Days 3, 7 and 11) is listed as 61%. Besides, in the series with RPP tumor (SRA737 100 mg/kg 3-days-on/4-days-off or 5-days-on/2-days-off), the “anti-tumor response (tumor growth)” value was “significant reduction in tumor growth”. In addition, the “anti-tumor effect (tumor volume)” value in the series on RPP tumor (LDG 40 mg/kg 1-day-on/6-days-off, SRA737 100 mg/kg 2-day-on/5-days-off) is reported as “no significant anti-tumor effect”. For the same molecule, the “STING pathway (pSTING_S366, STING, pIRF3_S396 and IRF3)” value in the series on STING pathway [3] is “Activation of the STING pathway”.
